Results from PMC4205912, “Sea foam as a source of fungal inoculum for the isolation of biologically active natural products” (Mycology, 2014).
In brackets after ≈: the same amount, converted by molar mass.

Legend:
MRSA ATCC 33591 = assay: microbroth antibiotic susceptibility testing, MRSA; assay type: cell-based, methicillin-resistant Staphylococcus aureus; conditions: triplicate, averaged, 22 h at 37°C
Experimental: (§1) All microbroth antibiotic susceptibility testing was carried out in triplicate in 96-well plates in accordance with Clinical Laboratory Standards Institute testing standards (NCCLS, [2003]) using the following pathogens: MRSA ATCC 33591 (MRSA), S. warneri ATCC 17917, VRE EF379 (VRE), Pseudomonas aeruginosa ATCC 14210, Proteus vulgaris ATCC 12454, and Candida albicans ATCC 14035. Extract fractions were assayed at 250 µg/mL while pure compounds were serially diluted to generate a range of 12 concentrations (128–0.0625 µg/mL) in a final well volume concentration of 2% DMSO(aq). […] The optical density of the plate was recorded using a Thermo Scientific Varioskan Flash plate reader at 600 nm at time zero and then again after incubation of the plates for 22 h at 37°C. After subtracting the time zero OD600 from the final reading, the percentages of microorganism survival relative to vehicle control wells were calculated.

[1] = system: adult human epidermal keratinocytes (HEKa); assay: cytotoxicity assay (Alamar blue), keratinocytes; assay type: cell-based; conditions: HeKa cells, 24 h
Experimental: (§2) Human foreskin BJ fibroblast cells (ATCC CRL-2522), adult human epidermal keratinocytes (HEKa), and human breast adenocarcinoma cells (ATCC HTB-26) were grown to 80% confluency (growth conditions are provided in Supplementary Materials and Methods), the cells were counted, diluted, and plated into treated 96-well cell culture plates. The BJ fibroblast and HEKa cells were plated at a cell density of 10,000 cells per well and the HTB-26 cells were plated at cell density of 5000 cells per well in 90 µL of respective growth medium (without the addition of antibiotics) and incubated for 24 h to allow cells to adhere to the plates before treatment. Pure compounds were tested in triplicate in serial dilutions of eight concentrations ranging from 128 µg/mL to 1 µg/mL per well (final well volume of 100 µL, 1% DMSO per well). Each of the cell lines were incubated at 37°C in a humidified atmosphere of 5% CO2; the BJ fibroblast and HEKa cells for 24 h and the HTB-26 cells for 72 h. Each plate contained four uninoculated positive controls, four untreated negative controls, and one column containing a concentration range of zinc pyrithione or doxorubicin. Alamar blue was added, 24 h after the treatment, and fluorescence was monitored using a Thermo Scientific Varioskan Flash plate reader at 560/12 excitation, 590 nm emission both at time zero and 4 h after Alamar blue addition. The inferred percentage of cell viability relative to vehicle control wells were calculated after subtracting the time zero emission 590 nm measurement from the final reading and the IC50 was determined.

[2] = system: adult human epidermal keratinocytes (HEKa); assay: cytotoxicity assay (Alamar blue), keratinocytes; assay type: cell-based; conditions: HeKa cells, 24 h; remark: listed apart in the source
S. warneri ATCC 17917 = assay: microbroth antibiotic susceptibility testing, S. warneri; assay type: cell-based; conditions: triplicate, averaged, 22 h at 37°C
Experimental: as §1

[3] = system: Pseudomonas aeruginosa ATCC 14210; assay: microbroth antibiotic susceptibility testing, P. aeruginosa; assay type: cell-based; conditions: triplicate, averaged, 22 h at 37°C
Experimental: as §1

VRE EF379 = assay: microbroth antibiotic susceptibility testing, VRE; assay type: cell-based, vancomycin-resistant Enterococcus faecium; conditions: triplicate, averaged, 22 h at 37°C
Experimental: as §1

[4] = system: Proteus vulgaris ATCC 12454; assay: microbroth antibiotic susceptibility testing, P. vulgaris; assay type: cell-based; conditions: triplicate, averaged, 22 h at 37°C
Experimental: as §1, with “14035.” for “14035. Extract fractions were assayed at 250 µg/mL while pure compounds were serially diluted to generate a range of 12 concentrations (128–0.0625 µg/mL) in a final well volume concentration of 2% DMSO(aq).”

[5] = system: Candida albicans ATCC 14035; assay: microbroth susceptibility testing, C. albicans; assay type: cell-based; conditions: triplicate, averaged, 22 h at 37°C
Experimental: as §1

[6] = system: erythropoietin gene expression; design: method as in Cai et al. [1998]; conditions: at a concentration of 1–1.6 µM; ref Cai et al. [1998]; cited from earlier work
[7] = system: Human foreskin BJ fibroblast cells (ATCC CRL-2522); assay: cytotoxicity assay (Alamar blue), fibroblasts; assay type: cell-based; conditions: Homo sapiens; BJ cells, 24 h; read-out: Fibroblast IC50
Experimental: as §2

stromelysin = system: stromelysin; design: method as in Harris et al. [1993]; conditions: ref Harris et al. [1993]; read-out: IC50, inhibition of cleavage of β-casein by stromelysin; cited from earlier work
[8] = Pseudomonas aeruginosa, ATCC14210

With coniothyrione the “MRSA IC50” value (MRSA ATCC 33591) was 8 µg/mL, the “MRSA MIC” value (MRSA ATCC 33591) was 16 µg/mL and the “Keratinocyte IC50” value [1] was 5 µg/mL. The “Keratinocyte MIC” value [2] was 64 µg/mL, the “S. warneri IC50” value (S. warneri ATCC 17917) was 12 µg/mL and the “S. warneri MIC” value (S. warneri ATCC 17917) was 16 µg/mL. The “P. aeruginosa IC50” value [3] was >64 µg/mL, the “P. aeruginosa MIC” value [3] was >64 µg/mL and the “VRE IC50” value (VRE EF379) was 4 µg/mL. For the same compound, the “VRE MIC” value (VRE EF379) was 16 µg/mL, the “P. vulgaris IC50” value [4] was 30 µg/mL and the “P. vulgaris MIC” value [4] was >64 µg/mL. The “C. albicans IC50” value [5] was >64 µg/mL and the “C. albicans MIC” value [5] was >64 µg/mL.
In the case of `Cc1cc(=O)c(O)cc2c1C[C@H]1CC(C)(C)/C=C/C[C@@]3(C)Oc4cc(O)c(=O)cc(C)c4C[C@@H]3C[C@H](O)[C@]1(C)O2` [Pycnidione, pycnidione], the IC50 (MRSA ATCC 33591; Staphylococcus aureus, read-out: MRSA IC50) is listed as 12 µg/mL (≈ 21.9 µM), the MIC (MRSA ATCC 33591; Staphylococcus aureus, read-out: MRSA MIC) is listed as 16 µg/mL (≈ 29.2 µM) and the “induction of erythropoietin gene expression” value [6] is listed as “five-fold”. For the same compound, the IC50 [7] was 11 µg/mL (≈ 20 µM), the IC50 ([1]; Homo sapiens, read-out: Keratinocyte IC50) was 15 µg/mL (≈ 27.3 µM) and the IC50 (S. warneri ATCC 17917; Staphylococcus warneri, ATCC17917, read-out: S. warneri IC50) was 12 µg/mL (≈ 21.9 µM). For the same compound, the MIC (S. warneri ATCC 17917; Staphylococcus warneri, ATCC17917, read-out: S. warneri MIC) was 64 µg/mL (≈ 117 µM), the IC50 [3, 8] was > 128 µg/mL and the MIC [3, 8] was > 128 µg/mL. The IC50 (VRE EF379; Enterococcus, VRE, read-out: VRE IC50) was 46 µg/mL (≈ 83.8 µM), the MIC (VRE EF379; Enterococcus, VRE, read-out: VRE MIC) was 64 µg/mL (≈ 117 µM) and the IC50 (stromelysin) was 31 µM. For the same compound, the IC50 ([4]; Proteus vulgaris, ATCC12454) was 30 µg/mL (≈ 54.7 µM), the MIC ([4]; Proteus vulgaris, ATCC12454) was 64 µg/mL (≈ 117 µM) and the IC50 ([5]; Candida albicans, ATCC14035) was 5 µg/mL (≈ 9.11 µM). For the same compound, the MIC ([5]; Candida albicans, ATCC14035) was 8 µg/mL (≈ 14.6 µM).
